# From patent EP0830890A1, “Surfactants for use in liquid/supercritical CO2” (AIR PRODUCTS AND CHEMICALS, INC., priority 1996, dated 1998)
# Tests used:
# Type in all cases: physicochemical
# [1] = Solubility in CO2 by cloud point determination in a variable volume view cell; parameters: Pressure Describing Cloud Point Determinations For Surfactant/CO2 Concentrations / Pressure Describing Cloud Point Determinations For Surfactant/CO2Concentrations: unit not given here
# Procedure: In the following examples, mixtures of acetylenic alcohols or diols and CO2 were prepared by adding the acetylenic alcohol or diol to a stainless steel variable volume view cell equiped with suitable relief devices, high pressure valves CO2 inlet and outlet and a sapphire window at one end. A high pressure syringe pump (High Pressure Products, HIP pump) was filled with liquid CO2 and used to quantitiatively add CO2 to the pressure vessel. The pressure vessel contained a magnetic stirrer and was stirred via a magnetic couple to a magnet located below the vessel.
# A weighed amount of surfactant (0.5-10 weight %) was placed inside the cell chamber in front of the piston. The cell window was attached and 10 cc ? s of CO2, was added to the cell. The surfactant was mixed in the CO2 using a magnetic stirring bar. The cell was mounted in horizontally and then immersed in a water bath. After allowing the high pressure cell to attain thermal equilibrium the pressure within the cell was varied using a floating piston. The pressure was changed to monitor the cloud point as being indicative of insolubility. The operator viewed the floating piston through the sapphire window using a suitable optic device, the onset of insolubility was taken when the translucent solution changed to an orange/brown color due to the Tindall light scattering of the insoluble droplets. The onset of insolubility was checked several times by varying the pressure using the high pressure syringe pump.
# A water bath was used to vary the temperature for each concentration. On completing the solubility studies at one concentration and one temperature series, a calibrated injector loop attached to the high pressure cell was filled with the surfactant via a syringe. Utilizing a six way valve to help inject this fixed amount of surfactant, the surfactant concentration within the high pressure cell was increased by a fixed increment. The solubility studies for this new CO2/surfactant concentration were measured at various temperatures in a similar manner to that previously described.
# [2] = Interfacial tension of a PEG 600 drop in CO2/surfactant solution via pendant drop technique; settings: PEG (600) drop, 2 weight % Surfynol/CO2 solution
# From the text: Interfacial activity can be monitored using the 'pendant drop' technique, ("Chemistry of Interfaces" M.J.Jaycock & Parfitt, John Wiley and Sons, New York p49-51). This method is utilized to measure the interfacial tension between a pendant drop and a continuous phase that surrounds the drop. When carbon dioxide is used as the continuous media, special high pressure equipment with sapphire view ports is required to maintain a solution of CO2 and surfactant, and to study the change in shape of the pendant drop for interfacial tension calculations. A general procedure for these high pressure phase behavior measurements may be found in Langmuir, vol. 10 1994, pg 3536-3541, by K. Harrison, K. P. Johnston, J. Goveas and E. A. O ? Rear.
# Various ethoxylates of 2,4,7,9-tetramethyl-5-decyn-4,7-diol were used in the interfacial tension study. Table 3 gives the interfacial tension observed for ethoxylates of 2,4,7,9-tetramethyl-5-decyn-4,7-diol containing 20, 40, and 65 wt% ethylene oxide. The table also gives the interfacial tension of the polyethyleneglycol (PEG 600)drop within the pure CO2 media. […] It is interesting to note the actual reduction in interfacial tension. For a control PEG 600 drop at 2510 psi the interfacial tension was measured to be 3.39 dyne/cm (run #5in Table 3). […] This corresponds to lowering the interfacial tension by 0.54 dyne/cm, a 16% reduction. A surfactant/CO2 solution of 2 weight % (using the 40 wt% ethoxylated Surfynol surfactant) gave an interfacial tension of 1.57 dyne/cm. at a CO2 pressure of 4030 psi (run #33in Table 3). The corresponding PEG drop at 4093psi used as the control gave an interfacial tension of 1.92dyne/cm (run #18 in Table 3).
# [3] = Solubility in CO2 by cloud point determination in a variable volume view cell; parameters: unit not given here; settings: Surfactant Concn. in CO2 0.2486 wt%; 65°C
substance,measurement,setting,value
"Ethoxylated 2,4,7,9-Tetramethyl-5-decyn-4,7-diol [AP-465]",Pressure Describing Cloud Point Determinations For Surfactant/CO2Concentrations,"[1]; Surfactant Concn. in CO2 0.2486 wt%, 25°C",1440
same,Pressure Describing Cloud Point Determinations For Surfactant/CO2Concentrations,"[1]; Surfactant Concn. in CO2 0.2486 wt%, 35°C",1920
same,Pressure Describing Cloud Point Determinations For Surfactant/CO2Concentrations,"[1]; Surfactant Concn. in CO2 0.2486 wt%, 60°C",2690
same,Pressure Describing Cloud Point Determinations For Surfactant/CO2Concentrations,"[1]; Surfactant Concn. in CO2 0.8867 wt%, 35°C",4020
same,Pressure Describing Cloud Point Determinations For Surfactant/CO2Concentrations,"[1]; Surfactant Concn. in CO2 0.8867 wt%, 45°C",4590
same,Pressure Describing Cloud Point Determinations For Surfactant/CO2Concentrations,"[1]; Surfactant Concn. in CO2 0.8867 wt%, 60°C",5270
same,Pressure Describing Cloud Point Determinations For Surfactant/CO2Concentrations,"[1]; Surfactant Concn. in CO2 0.8867 wt%, 65°C",5470
same,CO2 solubility (in words),[1]; in CO2,poor CO2 solubility
same,Interfacial Tension IFT,[2]; 3599 psi (248 bar),1.95 dyne/cm
same,Interfacial Tension IFT,[2]; 3628 psi (250 bar),1.99 dyne/cm
same,Interfacial Tension IFT,[2]; 3995 psi (276 bar),1.73 dyne/cm
same,Interfacial Tension IFT,[2]; 3998 psi (276 bar),1.66 dyne/cm
same,Interfacial Tension IFT,[2]; 4505 psi (311 bar),1.51 dyne/cm
same,Interfacial Tension IFT,[2]; 4508 psi (311 bar),1.57 dyne/cm
same,Pressure Describing Cloud Point Determinations For Surfactant/CO2Concentrations,[3],2800
